Experimental findings from article PMC9457259 (Proceedings of the National Academy of Sciences of the …, 2022) are described below.

Each structure is given as a SMILES string.

The target in this experiment is human voltage-gated proton channel hHv1 (Homo sapiens, UniProt Q96D96). The experiment is described as follows: liposome proton flux assay. It counts as biochemical.
human voltage-gated proton channel hHv1, sequence (Q96D96 whole entry): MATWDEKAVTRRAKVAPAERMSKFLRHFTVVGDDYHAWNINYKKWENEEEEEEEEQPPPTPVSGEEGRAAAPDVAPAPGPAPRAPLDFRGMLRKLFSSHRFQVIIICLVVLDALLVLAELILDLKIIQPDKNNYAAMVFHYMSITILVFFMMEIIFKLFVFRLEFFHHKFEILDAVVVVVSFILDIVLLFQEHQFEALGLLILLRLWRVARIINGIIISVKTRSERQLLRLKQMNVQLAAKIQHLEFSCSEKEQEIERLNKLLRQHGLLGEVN

As to `CC(C)CCC[C@@H](C)[C@H]1CC[C@H]2[C@@H]3CC=C4C[C@@H](O)CC[C@]4(C)[C@H]3CC[C@]12C` [cholesterol], the IC50 is ~ 10 % (wt/wt, to total membrane lipids).
